In patent publication US11234960B2, “Compositions and methods for improving mitochondrial function and treating neurodegenerative diseases and cognitive disorders” (Amazentis SA, priority 2010, dated 2022):

Assays:
[1] = test system: C57BL/6J mice exposed to chronic unpredictable stress; assay: Contextual fear conditioning in chronically stressed mice; type: in vivo; conditions: 25 mg/kg/d in diet, daily exposure for four days (FIG. 31)
Description: Three weeks before the initiation of the chronic stress protocol mice were separated into four different groups. One group received standard mouse chow diet (Control), while the remaining three groups received varying doses of extract 1011, an extract derived from pomegranate juice. Low dose corresponded to an extract dose of 21 mg/kg/d of gallic acid equivalents of polyphenols (GAE PPE), the medium dose corresponded to an extract dose of 43 mg/kg/d of GAE PPE, the high dose corresponded to an extract dose of 86 mg/kg/d of GAE PPE (see Table 5).
Three weeks before the initiation of the chronic stress protocol, mice were separated into two groups. […]
The unpredictable chronic stress protocol involved exposing animals to a daily stressful situation at an unpredictable moment for 4 weeks (between 8 am and 4 pm, and randomly distributed over the 28 days). […] All animals were weighed and the state of their coat was evaluated on a regular basis (every 3-5 days). […]
Contextual fear conditioning was used to test the effect of pomegranate extract on anxiety induction (i.e., learned anxiety) in mice in response to contextual recognition. […] To determine the effect of chronic stress and the various doses of pomegranate extract on the level of anxiety induced by this contextual memory, the level of anxiety-induced behavior in response to this context was measured. […]

[2] = test system: maternally separated mice; assay: Contextual fear conditioning in early-life stress mice; type: in vivo; conditions: early-life stressed mice
Description: At postnatal day 1, pups were culled to have 6 pups per mother. From postnatal day 1 to 14, unpredictable maternal separation (MS) of a period of 3 hours daily was carried out. Maternal separation was performed at random times (from 8 am to 2 pm) to avoid the habituation of the mother to the procedure. The protocol consisted of removing pups from their mother to another cage at room temperature for a 3 hour period, after which the pups were returned to their original nest. These groups are denoted as early-life stress in the figures. A control group of dam/pups was left undisturbed and is denoted in the figures as normal.
One week after maternal separation mice were separated into two groups. […]
Contextual fear conditioning was used to determine the effects of the ellagitannin punicalagin on the susceptibility of adult animals, subjected to early life stress, to anxiety. […] Animal behavior was monitored every 2 seconds throughout the duration of the experiment. The period that mice spent immobile in the chamber was considered as “freezing” and was scored throughout these periods. The time the mice spent immobile after the first shock was recorded for a 60 second period and expressed as a percentage. […]

Structure (SMILES)	extinction of memory of the adverse context (freezing) [1]	freezing time after the first foot shock (anxiety level) ([2]; 90 mg/kg/day in food, 60 second period (FIG. 42))	extinction of contextual recall (freezing as percent of day 1) ([2]; 90 mg/kg/day, 12 days, reduced freezing between days 8 and 12 (FIG. 43))
O=c1oc2cc(O)ccc2c2ccc(O)cc12 [urolithin A, 3,8-Dihydroxydibenzo-α-pyrone]	significant improvement in adverse memory extinction		
O=C1O[C@H]2[C@@H]3OC(=O)c4cc(O)c(O)c(O)c4-c4c(O)c(O)c5oc(=O)c6c(c(O)c(O)c7oc(=O)c4c5c76)-c4c(cc(O)c(O)c4O)C(=O)OC[C@H]3OC(O)[C@@H]2OC(=O)c2cc(O)c(O)c(O)c2-c2c1cc(O)c(O)c2O (mixture of isomers) [punicalagin, 2,3 hexahydroxydiphenoyl-4,6-gallagylglucose]		decreased and normalized these elevated anxiety levels	faster extinction than untreated early-life stressed mice
